# Laboratory results as given in a melting point compilation (Tetko et al.; mined from patent text by program, amines drawn as free bases though some values may be those of a salt).
row,melting point,SMILES
1,260 °C,CCn1cc(C(=O)O)c(=O)c2cc(Cl)c(N3CCN(C)CC3)cc21
2,101 to 106 °C,CN(C)S(=O)(=O)c1cccc(S(N)(=O)=O)c1
3,210 to 213 °C,CC1(C)CC(=O)c2c(NCc3ccccn3)sc(-c3cc[nH]n3)c2C1
4,160 to 162 °C,COc1cccc(NC(=O)N(C)Cc2cccc3c2C(=O)N(C2CCC(=O)NC2=O)C3=O)c1 (stereo unspecified)
5,182 °C,CSc1ccc2c(=O)c(OS(C)(=O)=O)cn(C)c2c1
6,165 to 167 °C,CCCCc1nc2cccc(C(=O)O)c2n1Cc1ccc(-c2ccccc2-c2nc(=O)o[nH]2)cc1
7,121 to 123 °C,COC(=O)CN(C)C(=S)c1cccc2c(SC(F)(F)F)c(OC)ccc12
8,93 to 94 °C,C=CCOc1ccc(-c2ccc(Cl)nn2)c(OCC(O)CNC(C)(C)C)c1 (stereo unspecified)
9,102 to 104 °C,COCCN(CCC12CC3CC(CC(C3)C1)C2)C(=O)NCCCc1ccncc1
10,162 to 164 °C,CN(C1c2cc(OCc3ccccc3)ccc2OC(C)(C)C1O)S(C)(=O)=O (stereo unspecified)
11,141 to 143 °C,COc1cccc(N2C(CO)=Cc3ccsc3S2(=O)=O)c1
12,236 to 238 °C,Nc1c(NCCSCc2csc(CN3CCCCC3)c2)c(=O)c1=O
13,100 to 102 °C,O=Cc1ccc(OCc2ccccc2)c([N+](=O)[O-])c1
14,221 to 222 °C,O=C(c1ccc2[nH]c3ccccc3c2c1)N1CCCCC1
15,149 to 152 °C,NC(=O)c1cnn2c1NCC=C2c1ccccc1
16,37 to 39 °C,Cc1c(F)ccc([N+](=O)[O-])c1Cl
17,239 to 242 °C,CNc1cncc(C(=O)O)c1
18,214 to 216 °C,CC1(C)CC(C)(c2ccc(Oc3ccc([N+](=O)[O-])cc3)cc2)c2cc(Oc3ccc([N+](=O)[O-])cc3)ccc21 (stereo unspecified)
19,225 °C,CCn1c(C)c(C2(c3c(-c4ccccc4)[nH]c4ccccc34)OC(=O)C(Cl)=C2Cl)c2ccccc21 (stereo unspecified)
20,220 to 221 °C,O=C1NN=C(c2cccc([N+](=O)[O-])c2)C2CC12 (stereo unspecified)
21,205 to 207 °C,O=c1n(-c2ccccc2)nc2c3c(nc(Cl)n12)CCCC3
22,151 to 153 °C,O=C(O)c1cccc(OCc2ccc(Cl)cc2Cl)c1OCc1ccccc1
23,211 °C,CCCCCC1(C)OCc2c1cnc(C)c2OCC(=O)O (stereo unspecified)
24,151 to 153 °C,Oc1ccc(OCC(O)CNCCNc2cccc3[nH]ncc23)cc1 (stereo unspecified)
25,119 to 121 °C,Clc1nc(Oc2ccccc2)nc(Oc2ccccc2)n1

row,melting point,SMILES
1,99 to 101 °C,COc1ccc(S(=O)(=O)NCC2CCN(C[C@H]3COc4ccc(Cl)cc4O3)CC2)cc1OC
2,177 to 178 °C,CCCN(CCC)C(=O)Cn1c(=O)[nH]c2cnc(-c3ccc(Cl)cc3)nc21
3,45 to 46 °C,CC(C)(C)CCCC(=O)Cn1ccnc1
4,187 to 188 °C,CCOC(=O)c1cnn2c(-c3ccc(C)c(C)c3)ccnc12
5,78 °C,COC(=O)[C@H]1CO[C@@H](C(C)(C)C)N1C(=O)Cl
6,240 °C,COC(=O)C(=O)Nc1c(-c2ccccc2)c(=O)[nH]c2cc(Cl)ccc12
7,127 to 129 °C,COc1c(C)c(NC(=O)NCCO)c(C)c2c1OCC2c1ccc(C(C)C)cc1 (stereo unspecified)
8,107 to 109 °C,CNS(=O)(=O)c1cc(C(=O)CCCCCl)cc2c1CCC2
9,152 to 154 °C,OCCNc1ccnc2ccccc12
10,245 to 246 °C,O=C(Nc1cccc(-c2ccnc3c(C(=O)c4cccs4)cnn23)c1)c1c(Cl)cccc1Cl
11,74 to 76 °C,COC(=O)CCCCCCCCCCCCCCCCCCCCCOS(=O)(=O)c1ccc(C)cc1
12,65 to 69 °C,CC=CCn1c(C)c(CCCCC)c2cnnc(OCc3ccc(F)cc3)c21
13,80 to 81.5 °C,ClC(=NNc1ccccc1)c1cccc(Cl)c1
14,160 to 165 °C,NN(Cc1nccs1)C1CCCN(C(=O)c2ccc(Nc3nccc(Nc4ccc(F)cc4)n3)cc2)C1 (stereo unspecified)
15,230 to 234 °C,CC1(C)CC(NC(=O)CCC(=O)NC2CC(C)(C)N(OC3CCCCC3)C(C)(C)C2)CC(C)(C)N1OC1CCCCC1
16,> 250 °C,CCn1c(C)nc2cc(C(=O)O)ccc21
17,145 to 147 °C,CC(=O)OCC1OC(N)C(OC(C)=O)C(OC(C)=O)C1OC(C)=O (stereo unspecified)
18,74 to 76 °C,COC(=O)c1c([N+](=O)[O-])cc(OC)c(OC)c1OC
19,195 to 196 °C,Cc1nnn2c1CO[C@H]1CN(C(=O)OC(C)(C)C)C[C@@H]12
20,176 to 180 °C,c1nc(Nc2ccc3[nH]ccc3c2)c2sc(-c3ccc(CNC4CC4)cc3)cc2n1
21,174 to 175 °C,COC1CCc2c(cc(-c3ccccc3)n2-c2ccc(O)cc2)C1 (stereo unspecified)
22,57 °C,CCCCCCCCCCCCCCCCCC(=O)Oc1cccc(C(=O)OCC)c1
23,118 to 120 °C,O=C(O)C1=Cc2cc(OC(F)(F)F)ccc2OC1C(F)(F)F (stereo unspecified)
24,> 250 °C,O=C(O)c1cccc(CN2C(=O)C3(COc4cc5c(cc43)CCO5)c3ccccc32)c1 (stereo unspecified)
25,78.4 °C,CCOCn1cc(C(C)C)c(=O)[nH]c1=O

row,melting point,SMILES
1,93 to 94 °C,O=C(NCCSCc1cccc(Cl)c1)c1c(C(F)(F)F)cccc1C(F)(F)F
2,93 to 95 °C,CC1CC=C(c2nnn(C)n2)CN1C (stereo unspecified)
3,143 to 144 °C,O=S(=O)(Nc1cccnc1Nc1ccccc1)c1cccc(Cl)c1
4,215 °C,CC(C)(C)c1ccc(S(=O)(=O)NC(=O)C(Oc2ccc3c(c2)C(=O)NC3=O)c2ccc3c(c2)OCO3)cc1 (stereo unspecified)
5,174 to 178 °C,Nc1cccc(C(=O)c2cc3c(Oc4ccc(Cl)cc4)cncc3s2)c1
6,108 to 109 °C,O=CNCc1ccc(CN2CCN(c3ccccc3)CC2)cc1
7,79 to 81 °C,CCc1nn(-c2cc(NC(=O)c3ccccc3)ccc2Cl)c(=O)n1Cc1ccc(-c2ccccc2S(=O)(=O)NC(=O)OC(C)(C)C)cc1F
8,237 to 239 °C,NS(=O)(=O)c1ccc(-c2cnn(Cc3ccc(F)cc3)c(=O)c2-c2ccc(F)cc2)cc1
9,184 to 185 °C,CNC(=S)n1ncnc1N
10,193 to 196 °C,CCCc1cc(=O)[nH]c2cc(OC)cc(OC)c12
11,262 to 264 °C,O=C1CCC(c2ccc(-n3cnc4ccccc43)cc2)=NN1
12,133 to 134 °C,ClCc1coc(-c2cc3ccccc3o2)n1
13,194 to 195 °C,CCCSc1ncc(CO)n1Cc1ccc(-c2ccccc2C(=O)O)cc1
14,154 to 156 °C,COc1ccc(Cl)c(C(N)=O)c1F
15,92 °C,COC(=O)c1ccc(N2CCC(N(C)Cc3ccc(F)cc3)CC2)cc1
16,135 to 137 °C,CC(=O)Nc1ccc2c(c1)/C(=N\NC(N)=O)C(=O)N2CCN(C(C)C)C(C)C
17,127 °C,N#Cc1ccc([C@H]2CC[C@H](CI)CC2)cc1
18,188 °C,Clc1ccc2nc(-n3cccn3)nnc2c1
19,115 to 157 °C,CC(C)COc1ccc(-c2ccc3nnn(Cc4ccc5ccccc5n4)c3n2)cc1F
20,142 to 144 °C,CC(C)c1ccc(C(=O)C(C)c2ccccc2)c(C(C)C)c1OS(N)(=O)=O (stereo unspecified)
21,60 to 61 °C,CCOC(=O)CCc1ccc(O)c(OCc2ccccc2)c1
22,187 to 190 °C,NS(=O)(=O)Cc1nc(-c2ccc(Cl)c(Cl)c2)cs1
23,224 to 226 °C,CCOc1ccccc1-c1nc2nc(SC)ncc2c(=O)[nH]1
24,196 °C,COc1ccc2sc(C(=O)Nc3ccc(CC(=O)O)cc3)c(OC(C)C)c2c1
25,75 to 77 °C,CC(C)=CCOc1ccc(C(=O)C=Cc2ccco2)c(O)c1

row,melting point,SMILES
1,218 to 219 °C,CC(Oc1ccc2c(=O)c(-c3cccc(O)c3)coc2c1)C(=O)O (stereo unspecified)
2,115 to 117 °C,O=C1CC(c2ccc(Br)cc2)Oc2ccc(Br)cc21 (stereo unspecified)
3,112 to 115 °C,CCOC(=O)C1(C(=O)N(Cc2ccccc2)Cc2ccccc2)CC(=O)N(Cc2ccccc2)C1 (stereo unspecified)
4,235 to 240 °C,O=C(NN1CCN(C(=O)C=Cc2ccccc2)CC1)c1ccc(F)cc1
5,> 250 °C,Nc1nc2ccccc2c2c1nc(O)n2Cc1ccccc1
6,141 °C,CCN(CC)C(=O)Cc1ccccc1OC
7,144 to 145 °C,COC(=O)c1ccccc1C(=O)n1nc(O)ccc1=O
8,128 to 130 °C,O=C(Cc1ccccc1)NCc1cccc2c1C(=O)N(C1CCC(=O)NC1=O)C2=O (stereo unspecified)
9,151 to 153 °C,NC(=O)Nc1ccccc1S
10,149 to 152 °C,CCNc1ncc(-c2cc(Cl)cc(Cl)c2Cl)c(N)n1
11,207 to 208 °C,C[Si](C)(C)c1ccc2c(c1)cc(C(=O)Nc1ccc(N3CC(O)C3)nc1)n2Cc1cccc(F)c1
12,122 to 125 °C,CN1CCC(=O)N(c2ccc(Cl)cc2Cl)C1=O
13,202 to 204 °C,CC(CCCC(C)(C)O)C1CCC2C3CCC4(O)CC(O)CCC4(C)C3CCC12C (stereo unspecified)
14,190 to 191 °C,COc1ccc(-c2cc(-c3ccccc3)[nH]c2C(=O)NCc2ccc(C(=O)Nc3ncccn3)cc2)cc1
15,57 °C,CC(C)OC(=O)c1cc(-c2nn(C)c(C(F)(F)F)c2C(F)F)c(F)cc1Cl
16,57 to 59 °C,CC(C)(CNC(=O)[C@H](O)[C@H](O)COC(=O)Cc1ccccc1Nc1c(Cl)cccc1Cl)SN=O
17,294 to 296 °C,O=c1cc(-c2ccccc2)oc2ncc(CN3CCCC3)cc12
18,157 to 163 °C,CC(C)C1(C)N=C(c2ncc(C3CC3)cc2C(=O)O)NC1=O (stereo unspecified)
19,207 to 209 °C,CS(=O)(=O)c1cccc(C2=C(c3ccccc3)C(=O)N(c3ccc(F)cc3)C2)c1
20,193 to 195 °C,CCn1c(C(O)(c2cccc(C(F)(F)F)c2)c2cccc(C(F)(F)F)c2)nc(-c2ccncc2)c1-c1ccc(Cl)cc1
21,230 to 231 °C,O=C(O)c1cnn(-c2ccc(F)cc2)c1Cl
22,235 to 238 °C,CC(=O)Nc1ccc(C=NNC(N)=S)cc1Cl

row,SMILES,melting point
1,Clc1cc2c(s1)-n1c(nnc1CN1CCOCC1)CN=C2c1ccccc1Cl,224 to 226 °C
2,CSC(=CC(=O)c1ccccc1Br)N1CCN2CCC1CC2,107 to 108 °C
3,COC1=CC2=CCC3C(CCC4(C)C(=O)CC(OC(C)=O)C34)C2(C)CC1 (stereo unspecified),209 °C
4,C=CCN1C(=O)C=C(NC2c3cc4c(cc3C(c3cc(OC)c(O)c(OC)c3)C3C(=O)OCC23)OCO4)C1=O (stereo unspecified),180 to 183 °C
